Like-named read-outs stand apart in the source and are kept apart here.
How the values were obtained:
[1] = system: Patients with Multiple Indications; assay: Treatment of patients with multiple indications by injection; pain level x/10; type: in vivo, human; conditions: for Pain level After: 2 cc injected
human patients [2] = system: human patients
Source text: (i) 10/10 pain from sacroilitis.
(ii) 5/10 pain from trochanteric bursitis.
(iii) 7/10 pain from Morton's neuroma.
(iv) 5/10 pain from lateral epicondylitis.

Patients with Arthritis = assay: Treatment of patients with arthritis by injection at or near acupuncture points; pain level x/10; type: in vivo, human
Source text: Treatment of Patients with Arthritis
(i) A patient presented with a 5/10 pain from severe rheumatoid arthritis.
(ii) A patient presented with an 8/10 pain from severe rheumatoid arthritis.
(iii) A patient presented with 8/10 pain from severe rheumatoid arthritis with diffuse joint stiffness, swelling and tenderness.
(i) A patient presented with a pain level of 10/10 from cervical strain due to seronegative rheumatoid arthritis.
(ii) A patient presented with a 7.5/10 pain globally from a seronegative arthritis (unspecified).
A patient presented with a 5/10 pain from bilateral post-traumatic subtalar arthritis.

[3] = system: Patients with Back, Shoulder, Leg Pain; assay: Treatment of patients with back, shoulder, leg pain by injection; pain level x/10; type: in vivo, human
Source text: (iv) A patient presented initially with 9/10 mechanical low back pain.
(v) A patient with an L5 radiculopathy complained of a 6/10 low back pain which was unrelieved by trigger point injections, sacroiliac injections and epidurals.
(vii) A patient presented with a 8/10 back pain from lumbar facet arthropathy.
(viii) A patient presented with an 8/10 back pain with radiation down leg from lumbar radiculopathy.
(xii) A patient presented with a 9/10 low back pain and 8/10 shoulder and neck pain.
(ii) A patient presented with a 4/10 pain due to sacroiliac strain.
(ii) A patient presented with a 4/10 neck pain from cervical degenerative disc disease.
(iii) A patient presented with a 9/10 pain globally from cervical spondylotic myelopathy.

human patients [4] = system: human patients; remark: listed apart in the source
human patients [5] = assay: Treatment with epinephrine or Restylane at specific influential points, also in combination with magnets; pain level x/10; type: in vivo
Source text: (i) A patient presented with a 6/10 left ankle pain from gout.
(ii) A patient presented with an 8/10 pain and stiffness from Parkinson's disease.
(iii) A patient presented with a 5/10 neck pain and stiffness.
(iv) A patient presented with a 5/10 neck and upper back pain from syringomyelia.
(v) A patient presented with a 5.8/10 right shoulder pain from rotator cuff tendinopathy.
(vi) A patient presented with a 2/10 shoulder pain from a rotator cuff tendinopathy.
(vii) A patient presented with a 10/10 frontal sinus headache which was present for over 1 week.
(viii) A patient presented with a 4/10 tension headache over the temples and neck with photophobia on which is present 2-3 times a week on average.
(ix) A patient presented with 10/10 pain from bilateral tarsal tunnel syndrome.
(x) A patient with chronic radicular left leg pain 6/10.
(i) A patient presented with a 5/10 pain globally especially in the low back.
(ii) A patient presented with a 5/10 pain in the mid back who had never had acupuncture before.
(iii) A patient presented with a 10/10 pain in an amputee with a compound fracture of their femur.
(i) A patient presented with common peroneal neuropathy with a pain level of 9/10.
(ii) Patient with 9/10 back pain from sacroilitis.

human patients [6] = assay: Treatments with saline; pain level x/10; type: in vivo; conditions: general observation in parenthesis
Source text: (i) A patient presented with a 2/10 rotator cuff tendinopathy.
(ii) 5/10 sacroiliac strain.
(iv) A patient presented with a 6/10 pain globally from severe systemic lupus erthymatosis (SLE).
(v) A patient presented with a 7/10 pain right medial knee pain from pes anserine bursitis.

C[C@]12C=CC(=O)C=C1CC[C@H]1[C@@H]3C[C@@H](O)[C@](O)(C(=O)CO)[C@@]3(C)C[C@H](O)[C@@]12F [triamcinolone]
pain after injection ([1]; cervical stenosis 8/10 and lumbosacral strain 7/10, triamcinolone only into GH joints bilaterally): complete relief

CCN(CC)CC(=O)Nc1c(C)cccc1C [lidocaine]
pain after injection (human patients [2]; 5/10 pain from lateral epicondylitis, 0.1 cc 2% lidocaine s.c. over lateral epicondyle): complete pain relief
pain after injection (human patients [2]; 5/10 pain from trochanteric bursitis, 0.1 cc 2% lidocaine bilaterally s.c. over trochanteric bursae): complete pain resolution
symptoms after injection (human patients [2]; 7/10 pain from Morton's neuroma, 0.1 cc 2% lidocaine s.c. on dorsal foot between metatarsal heads): complete resolution of symptoms
pain after injection (human patients [2]; 10/10 pain from sacroilitis, 0.1 cc 2% lidocaine s.c. over the sacroiliac joints): immediate pain cessation and return to full mobility
duration of complete pain relief (human patients [2]; same patient): 1 days
duration of complete pain resolution (human patients [2]; same patient): 3 weeks
duration of complete resolution of symptoms (human patients [2]; same patient): 2 weeks
pain relief still complete at time later (human patients [2]; same patient, magnets put over the two injection sites afterwards): ≥ 10 days
pain after injection (Patients with Arthritis; 6/10 shoulder pain (glenohumeral arthritis) and 7/10 low back pain (lumbar stenosis), 2 cc into GH joints bilaterally): complete pain relief
pain after injection (Patients with Arthritis; 9/10 elbow pain (radiohumeral arthritis) and 10/10 mechanical low back pain, 2 cc into GH joints near Lu 1 bilaterally): complete relief
pain after injection (Patients with Arthritis; bilateral post-traumatic subtalar arthritis, 5/10 before, 2 cc bilaterally s.c. over GH joints near Lu 1): disappearance of all pain
pain level after injection (Patients with Arthritis; cervical strain due to seronegative rheumatoid arthritis, 10/10 before, 1 cc bilaterally s.c. over GH joints): 4/10
pain after injection (Patients with Arthritis; right glenohumeral osteoarthritis 9/10 and 8/10 low back pain (sacroiliac strain), 2 ccs bilaterally into GH joints, agent not given, heading: Injection of Lidocaine): total relief
duration of pain relief (Patients with Arthritis; same patient as E13): 3 days
duration of pain relief (Patients with Arthritis; same patient as E15): 1 week
pain level after injection (Patients with Arthritis; same patient, 4/10 before, another 2 cc lidocaine bilaterally s.c. over GH joints): 3/10
pain after injection (Patients with Arthritis; seronegative arthritis (unspecified), 7.5/10 globally before, 2 cc bilaterally s.c. over GH joints): disappearance of all pain
pain after injection (Patients with Arthritis; severe RA, s.c. over GH joints bilaterally): resolution of all pain
pain after injection (Patients with Arthritis; severe rheumatoid arthritis, 5/10 before, 2 cc bilaterally s.c. over glenohumeral (GH) joints near Lu 1): disappearance of all pain and return of mobility
pain level after injection ([3]; 4/10 neck pain from cervical degenerative disc disease, 2 cc bilaterally s.c. over GH joints): 2/10
pain after injection ([3]; 4/10 pain due to sacroiliac strain, 2 cc bilaterally s.c. over GH joints): disappearance of all pain
pain after injection ([3]; 5/10 back pain due to rupture of the annulus, 2 cc 1% lidocaine into GH joints bilaterally): no relief
pain level after injection ([3]; 6/10 mechanical low back pain before, 2 cc bilaterally into GH joints): about 3/10
pain relief ([3]; 6/10 mechanical low back pain, 2 cc bilaterally into GH joints): about 50%
pain level after injection ([3]; 7/10 low back pain due to SI strain before, 2 cc into GH joints bilaterally): 4/10
pain level after injection ([3]; 8/10 back pain with radiation down leg, lumbar radiculopathy, 2 cc bilaterally s.c. over GH joints): 1/10
pain level after injection ([3]; 9/10 mechanical low back pain before, 2 cc bilaterally into GH joints, agent not given, heading: Injection of Lidocaine): 4/10
pain after injection ([3]; lumbar facet arthropathy, s.c. over GH joints bilaterally): resolution of pain
follow-up of pain relief ([3]; same patient as E28): still pain free one week later
other effects stated by patient ([3]; same patient as E34): felt more awake, alert and had a sense of well-being
drooling after injection (human patients [4]; excessive drooling (sialorrhea), 0.1 cc lidocaine 2% near Li 4): cessation of drooling
effect on sleepiness (human patients [4]; narcolepsy, falling asleep in the office, 0.1 cc 2% lidocaine near Li 4): noticeably woke patient up
duration of cessation of drooling (human patients [4]; same patient): 2 weeks
duration of effect (human patients [4]; same patient): lasted throughout the day
shoulder pain level after injection ([1]; 6/10 bilateral shoulder pain, glenohumeral arthritis, 4 ccs into GH joints bilaterally): 1/10
pain relief ([1]; 6/10 shoulder pain (bilateral rotator cuff tendinopathy) and 6/10 low back pain (lumbar spinal stenosis), 2 cc bilaterally into GH joints): about 50%
pain level after injection, right side of the body ([1]; 10/10 post surgical pain from tracheostomy and 6/10 coccygodynia, 2 cc s.c. bilaterally over GH joint): 2/10
Pain level After ([1]; Cervical spondylotic myelopathy, Before 9/10): 1/10
Pain level After ([1]; Chronic pelvic pain of non menstrual origin, Before 6/10): 0
Pain level After ([1]; Dermatomyositis, Before 6/10): 2/10
Pain level After ([1]; Knee pain, Before 5/10): 0
Pain level After ([1]; Lumbar radiculopathy, herniated disk and scatia, Before 8/10): 0
Pain level After ([1]; Multiple Sclerois with pain in legs, Before 7/10): 0
Pain level After ([1]; Peptic Ulcer with gnawing epigastric pain, Before 8/10): 0
Pain level After ([1]; Plantar Fasciitis, Before 6/10): 0
Pain level After ([1]; Reflex sympathetic dystophy, Before 6/10): 0
other effects reported by patient ([1]; same patient): felt more awake, had a better mood, and could breathe easier
pain level after injection ([1]; same patient as E44, 6/10 before): 3/10
low back pain level after injection ([1]; same patient, 6/10 low back pain, lumbar spinal stenosis, 4 ccs): 2/10
pain after further injection ([1]; same patient, another 2 cc over only the left GH joint): disappearance of all pain
pain after injection (human patients [5]; 9/10 back pain from sacroilitis, 0.1 cc lidocaine 2% bilaterally s.c. over sacroiliac joints (B 47, B 23)): disappearance of all back pain
pain after therapeutic magnets put over the sites of injection (human patients [5]; same patient): again disappeared
time after which the pain started to come back (human patients [5]; same patient): 2 days
effect of unilateral injection over the GH joint (human patients [6]): seems to provide analgesia on the opposite side of the body
